Data set [1] concerns ovalbumin inhalation model using guinea pigs. Put plainly: Airway responsiveness (Ach PC200) in ovalbumin inhalation model. As to conditions: guinea pig; 2% OA aerosol 10 days; 10 mg/kg i.p. twice daily for 10 days; FIG. 3. It is filed as in vivo. On the procedure: (§1) Male Hartley guinea pigs weighing 350-400 g were divided into three groups, i.e., the control group, the ovalbumin (OA) group and the OA+γ-GCE group. The control group was allowed to inhale an aerosol of physiological saline for 7-8 minutes per day for 10 consecutive days. The OA group was allowed to inhale an aerosol of 2% OA in the same manner. The OA+γ-GCE group was allowed to similarly inhale an aerosol of 2% OA together with intraperitoneal administration of 10 mg/kg of γ-GCE twice daily for 10 days.
Evaluation of efficacy was performed by measuring (1) the minimum provocative concentration of acetylcholine (Ach) at which the respiratory resistance reached more than 200% of baseline (Ach Provocative Concentration 200) both before and after inhalation for 10 days, together with measuring (2) the number of pulmonary membrane β-receptors and adenylate cyclase activity, and (3) xanthine oxidase activities in lung tissue, bronchoalveolar lavage fluid and serum, following 10 days of inhalation.
Each of the measurements were made using 6 animals in each group, and the results were expressed as mean ± standard deviation. Evaluation of significance was performed using Dunnett's test. Cases of P being less than 0.05 were considered to be statistically significant.

Data set [2] concerns pulmonary membrane adenylate cyclase. Briefly: Pulmonary membrane adenylate cyclase activity in ovalbumin inhalation model. Format: in vivo. The following applies: guinea pig; 2% OA aerosol 10 days; 10 mg/kg i.p. twice daily for 10 days; isoproterenol-stimulated and baseline; FIG. 5. How it is done: as §1, with “10 days. […] Each of the measurements were made using 6 animals in each group, and the results were expressed as mean ± standard deviation. Evaluation of significance was performed using Dunnett's test. Cases of P being less than 0.05 were considered to be statistically significant.” for “10 days.”

Data set [3] deals with liver ischemia-reperfusion model using rats. Put plainly: Glutathione concentration in liver tissue during liver ischemia-reperfusion. It is filed as in vivo. As to conditions: rat, 50 mg/kg i.v. How it is done: Male Wister rats weighing 250-300 g were fasted with free access to water 24 hours before the experiment. Seventy-two rats were divided into three groups of 24 animals each, i.e., the control group, the GSH administration group and the γ-GCE-administration group. Each rat was anesthetized by intraperitoneal administration of 40 mg/0.8 ml/kg of sodium pentobarbital, and the femoral vein was cannulated. In the GSH group and the γ-GCE group, 50 mg/kg of GSH or γ-GCE respectively were administered intravenously. Physiological saline was then infused for volume replacement in each group, as a continuous intravenous infusion at a rate of 0.8 ml/hr with an injection pump throughout the experiment. Thirty minutes after starting injection of physiological saline, the abdomon was opened by a midline incision and the liver hilus was exposed. According to the method described by Hasselgren, et al. in J. Surg. Res., Vol. 34, pp. 409-414, 1984, all vessels to the left and median lobes of the liver, more specifically, hepatic artery, portal vein and the bile duct, were clamped to produce an ischemic state for 2 hours. Since blood vessels to the remaining parts of the liver were not occluded by this method, poral stasis could be avoided which was of special relevance for circulation stability in rats. Thereafter, occlusion of all vessels was released by removing the clamp to allow reperfusion for 1 hour. The abdominal walls were closed during ischemia and reperfusion.
Using 18 rats in each group, the livers of 6 animals from each group were removed before ischemia, after 2 hours of ischemia, and after 1 hour of reperfusion, respectively. A portion of the liver from each animal was rapidly frozen in liquid nitrogen and used for measurement of glutathione,adenine nucleotides and lipid peroxide. From the remaining portion of the liver, mitochondria was immediately extracted according to the method described by Hogeboom and Schneider in the J. Biol. Chem., Vol. 172, p. 619, 1948. In other experiments, immediately after starting reperfusion, blood from the hepatic vein was collected using 6 rats from each group. These blood samples were then used to measure leaked adenine nucleotides. In addition, after 1 hour of said reperfusion, blood samples were also drawn, which were then used to measure the activity of the leaked liver cell enzymes.
Evaluation of ischemia-reperfusion injury was performed by measuring liver tissue (1) mitochondrial function, (2) glutathione concentration, (3) adenine nucleotides concentration, and (4) lipid peroxide concentration, as well as liver tissue derived (5) adenine nucleotides concentration in the hepatic vein immediately after starting reperfusion, and (6) liver cell enzyme activities in the blood after 1 hour of reperfusion. More specifically, the mitochondrial function in (1) was measured according to the method described by Chance, et al. in Adv. Enzymol., Vol. 17, p. 65, 1956. In addition, the quantitative determination of glutathione in (2) was performed using the same method as Experiment 1 on supernatant obtained by adding 10 vol/g of tissue weight of 2.5% (w/v) sulfosalicylic acid dihydrate aqueous solution to the liver tissue followed by homogenization and centrifugation. In addition, the quantitative determination of adenine nucleotides in (3) was performed by neutralizing the perchloric acid extract of the liver tissue with potassium hydroxide followed by removal of the precipitate and applying to an ion exchange HPLC column according to the method described by Sugino, et al. in J. Chromatogr., Vol. 361, pp. 427-431, 1986. In addition, the measurement of lipid peroxide in (4) was performed according to the thiobarbiturate method described by Ohkawa, et al. in Anal. Biochem., Vol. 95, p. 351, 1979. […]

For data set [4], the system named is xanthine oxidase. Put plainly: Xanthine oxidase activities in lung tissue, bronchoalveolar lavage fluid and serum. Format: in vivo. The following applies: guinea pig; OA inhalation 10 days + 10 mg/kg i.p. twice daily. On the procedure:
as §1, with “10 days. […] Each of the measurements were made using 6 animals in each group, and the results were expressed as mean ± standard deviation. Evaluation of significance was performed using Dunnett's test. Cases of P being less than 0.05 were considered to be statistically significant.” for “10 days.”

Data set [5] deals with pulmonary membrane β-receptors. Briefly: Number of pulmonary membrane β-receptors in ovalbumin inhalation model. Format: in vivo. The following applies: guinea pig; 2% OA aerosol 10 days; 10 mg/kg i.p. twice daily for 10 days; FIG. 4. How it is done:
as §1, with “10 days. […] Each of the measurements were made using 6 animals in each group, and the results were expressed as mean ± standard deviation. Evaluation of significance was performed using Dunnett's test. Cases of P being less than 0.05 were considered to be statistically significant.” for “10 days.”

For data set [6] the following is noted: in vivo; cited from earlier work.

With `CCOC(=O)[C@H](CS)NC(=O)CC[C@H](N)C(=O)O` [γ-GCE, γ-L-glutamyl-L-cysteine ethyl ester], the “effect on increase in airway responsiveness (decrease in log[Ach PC200]) after OA inhalation” value in data set [1] was “inhibited (1) the remarkable increase in airway responsiveness”. Also, in data set [2], the “effect on the reduction in pulmonary membrane adenylate cyclase activity after OA inhalation” value is listed as “inhibited”. Moreover, in data set [3], the “decrease of liver glutathione concentration throughout the experiment” value is “no significant decrease was observed throughout the experiment”; the “Liver tissue glutathione, GSH + GSSG, after 1 hour reperfusion” value was 5.50 ± 0.26 μmol/g of liver wet weight; the “Liver tissue glutathione, GSH, after 1 hour reperfusion” value is listed as 4.97 ± 0.25 μmol/g of liver wet weight; the “Liver tissue glutathione, GSSG, after 1 hour reperfusion” value is recorded as 0.54 ± 0.09 μmol/g of liver wet weight. In data set [3], the “Liver tissue glutathione, GSH + GSSG, after 2 hours ischemia” value is reported as 5.87 ± 0.43 μmol/g of liver wet weight; the “Liver tissue glutathione, GSH, after 2 hours ischemia” value is given as 5.48 ± 0.42 μmol/g of liver wet weight; the “Liver tissue glutathione, GSSG, after 2 hours ischemia” value is listed as 0.39 ± 0.01 μmol/g of liver wet weight; the “Liver tissue glutathione, GSH + GSSG, before ischemia” value is on record as 6.04 ± 0.35 μmol/g of liver wet weight. Also, in data set [3], the “Liver tissue glutathione, GSH, before ischemia” value was 5.65 ± 0.30 μmol/g of liver wet weight and the “Liver tissue glutathione, GSSG, before ischemia” value was 0.39 ± 0.07 μmol/g of liver wet weight. Also, the “liver glutathione concentration compared with control group or GSH administration group” value in data set [3] (throughout the experiment) was “significantly higher”. For the same compound, in data set [4], the “Xanthine oxidase activity, bronchoalveolar lavage fluid” value stood at 9.43 ± 0.95 mU/ml; the “Xanthine oxidase activity, lung tissue” value turned out to be 33.3 ± 4.02 mU/g tissue; the “Xanthine oxidase activity, serum” value is listed as 10.0 ± 1.77 mU/ml; the “xanthine oxidase values compared with the OA group, lung tissue and bronchoalveolar lavage fluid” value was “significantly lower than those of the OA group”. Besides, the “effect on the reduction in pulmonary membrane β-receptors after OA inhalation” value in data set [5] is listed as “inhibited”.

For the compound `N[C@@H](CCC(=O)N[C@@H](CS)C(=O)NCC(=O)O)C(=O)O` [GSH, reduced glutathione, reference compound], the “half-life in the blood when administered” value in data set [6] is “several minutes”. In data set [3], the “liver glutathione concentration after reperfusion relative to the level prior to ischemia” value is reported as about 70%; the “Liver tissue glutathione, GSH + GSSG, after 1 hour reperfusion” value is 3.77 ± 0.64 μmol/g of liver wet weight; the “Liver tissue glutathione, GSH, after 1 hour reperfusion” value is listed as 3.40 ± 0.60 μmol/g of liver wet weight; the “Liver tissue glutathione, GSSG, after 1 hour reperfusion” value is on record as 0.37 ± 0.05 μmol/g of liver wet weight. Moreover, in data set [3], the “Liver tissue glutathione, GSH + GSSG, after 2 hours ischemia” value was 4.40 ± 0.68 μmol/g of liver wet weight; the “Liver tissue glutathione, GSH, after 2 hours ischemia” value is 4.35 ± 0.65 μmol/g of liver wet weight; the “Liver tissue glutathione, GSSG, after 2 hours ischemia” value is reported as 0.35 ± 0.04 μmol/g of liver wet weight; the “Liver tissue glutathione, GSH + GSSG, before ischemia” value is recorded as 5.29 ± 0.38 μmol/g of liver wet weight. In addition, in data set [3], the “Liver tissue glutathione, GSH, before ischemia” value is 4.91 ± 0.35 μmol/g of liver wet weight and the “Liver tissue glutathione, GSSG, before ischemia” value is 0.38 ± 0.06 μmol/g of liver wet weight.

The values above are taken from patent publication US6127342A, “Method for preventing or treating a lung disease caused by active oxygen and free radical injury” (Teijin Limited, priority 1991, dated 2000).
